Laboratory results published in patent US7183112B2, “Uses for anti-malarial therapeutic agents” (APT Pharmaceuticals, LLC, priority 1999, dated 2007).

Test system: Ascaris-sensitized sheep
Experiment: Airway hyperresponsiveness to carbachol (post/pre challenge PC400 ratio), Example 3
Type: in vivo
Protocol: Dose Response Curves to Inhaled Carbachol: For the carbachol dose response curves, measurements of SRL were repeated immediately after inhalation of buffer and after each administration of 10 breaths of increasing concentrations of carbachol solution (0.25%, 0.5%, 1.0%, 2.0% and 4.0% w/v). To assess airway responsiveness, the cumulative carbachol dose in breath units (BU) that increased SRL 400% over the post-buffer value (i.e. PC400) was calculated from the dose response curve. One breath unit was defined as one breath of a 1% w/v carbachol solution. The same basic protocol was used for all studies in Example 3. This basic protocol consisted of first obtaining baseline dose response curves to aerosol carbachol 1–3 days prior to antigen challenge. Then, on the day of antigen challenge, values of specific lung resistance (SRL) were measured at baseline and, then, 30 min after drug or vehicle (0.9% saline) treatment. The animals were, then, challenged with Ascaris suum antigen and SRL was remeasured immediately after challenge, hourly from 1–6 h after challenge and on the half-hour from 6 ½–8 h after challenge. Measurements of SRL were obtained 24 h after challenge followed by the 24 h post challenge dose response curve. Studies differed in time of treatment, treatment dose or route of administration. […] A second control challenge was done 2 weeks after the drug trial to insure that the 4 day treatment regimen had no carry-over effect. […] A second control challenge was done 2 weeks after the drug trial to insure that the 4 day treatment regimen had no carry-over effect. […] A second; control challenge was done 2 weeks after the drug trial to insure that the 4 day treatment regimen had no carry-over effect. […] Challenges were separated by 2 weeks. […] On the 15th day, the animals were treated and 30 min later, challenged with antigen. On the following day, after determining the post challenge PC400, the animals resumed treatment for another 14 days, after which, they were challenged with antigen (day 29). The animals were then left untreated for 14 days, after which an antigen challenge was conducted (day 43) and, then, this procedure was repeated after another 2 weeks (day 57). For each series, a repeated measures analysis of variance was performed to see if there were overall differences between the historical control the drug trial and the 2 week follow-up control or, in the case of experiments described in series 4 and 5, amongst the doses and different times, respectively. If a significant overall effect was found, then a two-tailed paired t-test were used to assess pairwise differences. The variables assessed were the peak early airway response (maximum increase in SRL 0–4 h after challenge), peak late airway response (maximum increase in SRL between 5–8 h after antigen challenge, irrespective of when this increase occurred for each sheep in each trial) and on the ratio of post challenge PC400 to pre challenge PC400. (Note: a ratio close to 1 indicates no airway hyperresponsiveness, whereas, a ratio close to 0.5 indicates the development of airway hyperresponsiveness.). Peak responses were used because they are the most conservative estimate of the overall effect. Values in the text and figures are mean±se for 3 sheep.

Compound: CCN(CCO)CCCC(C)Nc1ccnc2cc(Cl)ccc12 (centres unmarked) [HCQ, hydroxychloroquine]
- effect on airway hyperresponsiveness (AHR) (aerosol 1 mg/kg twice a day for 4 days): protection
- effect on antigen-induced AHR (aerosol 2 mg/kg once a day for 4 days): protection
- effect on antigen-induced AHR (chronic treatment, aerosol 2 mg/kg once a day for up to 4 weeks): protection
- effect on antigen-induced AHR (dose response, aerosol 0.2, 0.6 and 2 mg/kg once a day for 4 days): protection
- effect on antigen-induced AHR (p.o. 1 mg/kg twice a day for 4 days): did not protect
